“And” between values parts separate entries of the source, which are not always exact repeats. Equal entries are not always repeated.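 Following 48 hours of exposure in 96-well plates, responses at five concentrations were used to interpolate endpoints linearly. GI50 = concentration required for 50% inhibition of growth. TGI marks complete inhibition of growth.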
Key:
Assay in all cases: inhibition of tumour cell growth, NCI panel, 48 h
[1] = test system: A549 NSCLC
[2] = test system: HCC-2998 colon
[3] = test system: HCT-15 colon
[4] = test system: K-562 leukemia
[5] = test system: KM12 colon
[6] = test system: M14 melanoma
[7] = test system: NCI-H226 lung
[8] = test system: NCI-H23 lung
[9] = test system: RXF 393 renal
[10] = test system: UACC-257 melanoma

## Cc1nc2sc(C(=O)Nc3cccc(Cl)c3)c(N)c2cc1C(O)c1ccccc1 (stereo unspecified)
[1]
  GI50: 1.59 µM
  TGI: 38.8 µM
[2]
  GI50: 1.98 µM
  TGI: 10.5 µM
[3]
  GI50: 0.384 µM
  TGI: 46.8 µM
[4]
  GI50: 0.488 µM
  TGI: > 100 µM
[5]
  GI50: 0.577 µM
  TGI: 24.5 µM
[6]
  GI50: 0.709 µM
  TGI: > 100 µM
[7]
  GI50: 3.53 µM
  TGI: 26.6 µM
[8]
  GI50: 1.4 µM
  TGI: 19.4 µM
[9]
  GI50: 0.722 µM
  TGI: 11.5 µM
[10]
  GI50: 1.39 µM
  TGI: 22.2 µM

## CN(C)CC(=O)N1CCc2c([nH]c3ccccc23)C1c1cccnc1 (stereo unspecified)
[1]
  TGI: > 100 µM
[2]
  TGI: > 100 µM
[3]
  TGI: > 100 µM
[4]
  TGI: > 100 µM
[5]
  TGI: > 100 µM
[6]
  TGI: > 100 µM
[7]
  GI50: > 100 µM
  TGI: > 100 µM
[8]
  TGI: > 100 µM
[9]
  GI50: > 100 µM
  TGI: > 100 µM
[10]
  TGI: > 100 µM

## NCC[PH+](c1ccccc1)c1ccccc1.NCC[PH+](c1ccccc1)c1ccccc1.[Cl-].[Pt+4]
[1]
  GI50: > 100 µM
  TGI: > 100 µM
[2]
  GI50: > 100 µM
  TGI: > 100 µM
[3]
  GI50: > 100 µM
  TGI: > 100 µM
[4]
  GI50: 26.5 µM
  TGI: > 84.7 µM
[5]
  GI50: > 100 µM
  TGI: > 100 µM
[6]
  GI50: > 100 µM
  TGI: > 100 µM
[7]
  GI50: > 100 µM
  TGI: > 100 µM
[8]
  GI50: > 100 µM
  TGI: > 100 µM
[9]
  GI50: > 100 µM
  TGI: > 100 µM
[10]
  GI50: > 100 µM
  TGI: > 100 µM

## Clc1cc(Cl)cc(Nc2ccc3c(OCCCN4CCOCC4)cccc3n2)c1
[1]
  GI50: 2.6 µM
  TGI: 6.87 µM
[2]
  GI50: 1.82 µM
  TGI: 3.51 µM
[3]
  GI50: 1.75 µM
  TGI: 3.52 µM
[4]
  GI50: 2.21 µM
  TGI: 5.71 µM
[5]
  GI50: 2 µM
  TGI: 4.13 µM
[6]
  GI50: 1.86 µM
  TGI: 4 µM
[7]
  GI50: 3.17 µM
  TGI: 10.7 µM
[8]
  GI50: 2.94 µM
  TGI: 10.2 µM
[9]
  GI50: 2.26 µM
  TGI: 5.14 µM
[10]
  GI50: 2.05 µM
  TGI: 4.31 µM

## COc1ccc(-c2nn(-c3cccc(Cl)c3)cc2-c2c(C#N)c(=O)n3[nH]c(-c4ccc(C)o4)nc3c2C#N)cc1
[1]
  GI50: 4.57 µM
  TGI: > 50 µM
[2]
  GI50: 7.43 µM
  TGI: 45.7 µM
[3]
  GI50: 16.6 µM
  TGI: > 50 µM
[4]
  GI50: 4.09 µM
  TGI: > 50 µM
[5]
  GI50: 3.54 µM
  TGI: > 50 µM
[6]
  GI50: 5.49 µM
  TGI: 22.4 µM
[7]
  GI50: 7.35 µM
  TGI: > 50 µM
[8]
  GI50: 8.09 µM
  TGI: > 50 µM
[9]
  GI50: 4.11 µM
  TGI: > 50 µM
[10]
  GI50: 8.45 µM
  TGI: > 50 µM

## CC1(O)CC2C(CC1SCc1ccccc1)C2(C)C (stereo unspecified)
[1]
  GI50: 40.9 µM and 17.4 µM
  TGI: > 100 µM and 31.1 µM
[2]
  GI50: 24.1 µM and > 100 µM
  TGI: 50 µM and > 100 µM
[3]
  TGI: 65 µM and 30.6 µM
[4]
  GI50: 33.3 µM and 12.3 µM
  TGI: > 100 µM and 32.1 µM
[5]
  TGI: 50.8 µM and 34.6 µM
[6]
  TGI: 87.2 µM and 28.9 µM
[7]
  TGI: 42.5 µM and 30.1 µM
[8]
  TGI: 58.5 µM and 27.4 µM
[9]
  TGI: 35.6 µM and 28.6 µM
[10]
  GI50: 26.2 µM and 12 µM
  TGI: 59.5 µM and 24.7 µM

## c1ccc2c(c1)n1nnnc1c1nnnn21
[1]
  TGI: > 100 µM
[2]
  TGI: > 100 µM
[3]
  TGI: > 100 µM
[4]
  TGI: > 100 µM
[5]
  TGI: > 100 µM
[6]
  TGI: > 100 µM
[7]
  TGI: > 100 µM
[8]
  TGI: > 100 µM
[9]
  TGI: > 100 µM
[10]
  TGI: > 100 µM

## CCOC(=O)c1cnc2c(ccc3ncccc32)c1OCC
[1]
  TGI: > 100 µM
[2]
  TGI: > 100 µM
[3]
  TGI: > 100 µM
[4]
  TGI: > 100 µM
[5]
  TGI: > 100 µM
[6]
  TGI: > 100 µM
[7]
  TGI: > 100 µM
[8]
  TGI: > 100 µM
[9]
  TGI: > 100 µM
[10]
  TGI: > 100 µM
